# Results taken from patent US9260439B2, “Dihydropyrrolopyrimidine derivatives” (PFIZER INC., priority 2014, dated 2016).
# Molecular target: full-length PI3Kα (full-length p110α/p85α) (Homo sapiens (Human), UniProt P42336)
# Experiment: PI3KA_FL fluorescence polarization kinase assay (Ki)
# Assay type: biochemical
# Conditions: 41 μM ATP
# Excerpt: Enzyme Production for Biochemical Assays: 1) PI3Kα Complex (Full Length p110α and p85α)(“PI3KA_FL”)
# Genes encoding for full length p110α and p85α subunits of PI3Kα complex were subcloned from existing constructs into pFASTBAC Dual vector (Life Technologies, Carlsbad, Calif.) using standard cloning procedures. Gene encoding p110α subunit was subcloned into polyhedrine promoter while gene encoding p85α subunit was subcloned into p10 promoter. Additionally, sequence encoding for histidine tag and Tobacco Etch Virus (“TEV”) cleavage site preceded p110α ORF (Open Reading Frame). Recombinant baculovirus was generated using Bac-to-Bac protocol (Life Technologies, Carlsbad, Calif.) and large scale expression was conducted in Sf21 (Life Technologies, Carlsbad, Calif.) cells at a multiplicity of infection (“MOI”)=1 for 72 hours. Cells were lyzed in 50 mM Tris pH 8.0, 250 mM NaCl, 5% glycerol, 0.25 mM TCEP, and 20 mM imidazole. The PI3Kα complex was purified from clarified supernatant using Immobilized Metalo Affinity Chromatography (“IMAC”). The protein was eluted from the column using 50 mM Tris pH 8.0, 200 mM NaCl, 5% glycerol, 0.25 mM TCEP, and 200 mM imidazole, and further desalted into 50 mM Tris pH 8.0, 20 mM NaCl, and 0.25 mM TCEP prior to loading on MonoQ sepharose (GE Healthcare, Piscataway, N.J.). PI3Kα complex was eluted from MonoQ sepharose over 20 column volumes using 0-30% gradient of buffer B (50 mM Tris pH 8.0, 1 M NaCl, and 0.25 mM TCEP). The peak fractions were pulled together and loaded on Superdex 200 26/60 SEC column equilibrated in 50 mM Tris pH 8.0, 200 mM NaCl, and 0.5 mM TCEP. […] Purity and integrity of the complex was confirmed using LCMS, analytical SEC and SDS-PAGE (sodium dodecyl sulfate polyacrylamide gel electrophoresis) analysis.
# The biochemical assays of kinase activity of full-length PI3Kα (full-length p110α/p85a) or truncated PI3Kα (p110α/iSH2 p85a) were conducted using a fluorescence polarization format similar to the procedure of Yuan J., et al., (2011) “PF-04691502, a Potent and Selective Oral Inhibitor of PI3K and mTOR Kinases with Antitumor Activity”, Mol Cancer Ther. 10, 2189-2199. The enzymatic reactions were conducted in 50 μL volumes in 96-well plates. The reactions contained human recombinant PI3Kα (2 nM full-length p110α/p85α or 0.5 nM p110α/iSH2 p85) and 30 μM phosphatidylinositol 4,5-bisphosphate (“PIP2”) (Cayman Chemical Company, Ann Arbor, Mich.) and were sonicated for 1 minute prior to adding PI3Kα enzyme (PI3KA_Act or PI3KA_FL), DMSO or test compound (12-point 3-fold serial dilution, 3 μM top dose, 2° A) DMSO final concentration), 5 mM MgCl2, 50 mM HEPES pH 7.4, 150 mM NaCl, 1 mM DTT ((2S,3S)-1,4-bis(sulfanyl)butane-2,3-diol), and 0.05% 3-[(3-cholamidopropyl)dimethylammonio]-1-propanesulfonate (“CHAPS”). […] The reactions were incubated for 30 min at room temperature, stopped with EDTA pH 8 (10 mM final concentration). In a detection plate, 15 μL of detector/probe mixture, containing 480 nM GST-Grp1 PH domain protein (University of Dundee, Dundee, UK) and 12 nM carboxytetramethylrhodamine (“TAMRA”)-tagged fluorescent phosphatidylinositol (3,4,5)-triphosphate (“PIP3”) (Echelon Biosciences, Inc., Salt Lake City, Utah) in assay buffer, was mixed with 15 μL of kinase reaction mixture. The plate was shaken for 30 minutes and fluorescence polarization values were measured on an LJL Analyst HT plate reader (Molecular Devices, Sunnyvale, Calif.). […] The inhibition constants (Ki) were calculated by fitting fluorescence polarization values, corresponding to initial reaction rates, to the Morrison equation (Morrison, J. F. (1969) Kinetics of the reversible inhibition of enzyme catalysed reactions by tight-binding inhibitors. Biochim. Biophys. Acta 185, 269-286) for tight-binding competitive inhibitors using non-linear regression method (GraphPad Prism, GraphPad Software, San Diego, Calif.).
# full-length PI3Kα (full-length p110α/p85α), sequence (P42336 whole entry): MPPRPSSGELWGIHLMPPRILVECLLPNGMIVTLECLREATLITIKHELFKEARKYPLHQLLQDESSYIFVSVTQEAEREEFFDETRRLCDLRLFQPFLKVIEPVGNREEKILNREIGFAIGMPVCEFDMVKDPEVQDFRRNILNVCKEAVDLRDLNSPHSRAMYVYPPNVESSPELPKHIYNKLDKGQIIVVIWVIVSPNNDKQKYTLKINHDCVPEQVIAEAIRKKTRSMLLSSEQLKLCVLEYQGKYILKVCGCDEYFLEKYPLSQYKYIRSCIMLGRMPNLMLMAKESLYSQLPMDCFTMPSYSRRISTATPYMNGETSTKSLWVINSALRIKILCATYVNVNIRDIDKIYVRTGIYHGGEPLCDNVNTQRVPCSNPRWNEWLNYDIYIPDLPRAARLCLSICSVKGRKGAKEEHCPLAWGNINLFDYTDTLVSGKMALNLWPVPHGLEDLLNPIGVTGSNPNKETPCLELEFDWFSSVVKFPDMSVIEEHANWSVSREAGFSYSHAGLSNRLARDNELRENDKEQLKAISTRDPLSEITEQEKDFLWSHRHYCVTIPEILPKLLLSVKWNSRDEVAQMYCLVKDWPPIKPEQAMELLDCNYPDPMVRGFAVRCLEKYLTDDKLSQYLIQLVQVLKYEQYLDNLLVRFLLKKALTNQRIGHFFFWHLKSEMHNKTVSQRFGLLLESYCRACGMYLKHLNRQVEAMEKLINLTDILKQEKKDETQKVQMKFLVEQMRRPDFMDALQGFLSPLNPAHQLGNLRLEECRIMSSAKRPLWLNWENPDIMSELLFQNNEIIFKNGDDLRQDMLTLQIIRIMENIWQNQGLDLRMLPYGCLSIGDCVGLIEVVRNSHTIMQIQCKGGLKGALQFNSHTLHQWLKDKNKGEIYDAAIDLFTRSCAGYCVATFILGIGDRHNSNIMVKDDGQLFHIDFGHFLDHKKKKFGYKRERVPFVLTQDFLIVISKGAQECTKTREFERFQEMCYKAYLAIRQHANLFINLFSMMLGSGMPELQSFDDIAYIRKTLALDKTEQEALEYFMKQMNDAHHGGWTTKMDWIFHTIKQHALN
# full-length PI3Kα (full-length p110α/p85α), sequence (P27986 whole entry partner): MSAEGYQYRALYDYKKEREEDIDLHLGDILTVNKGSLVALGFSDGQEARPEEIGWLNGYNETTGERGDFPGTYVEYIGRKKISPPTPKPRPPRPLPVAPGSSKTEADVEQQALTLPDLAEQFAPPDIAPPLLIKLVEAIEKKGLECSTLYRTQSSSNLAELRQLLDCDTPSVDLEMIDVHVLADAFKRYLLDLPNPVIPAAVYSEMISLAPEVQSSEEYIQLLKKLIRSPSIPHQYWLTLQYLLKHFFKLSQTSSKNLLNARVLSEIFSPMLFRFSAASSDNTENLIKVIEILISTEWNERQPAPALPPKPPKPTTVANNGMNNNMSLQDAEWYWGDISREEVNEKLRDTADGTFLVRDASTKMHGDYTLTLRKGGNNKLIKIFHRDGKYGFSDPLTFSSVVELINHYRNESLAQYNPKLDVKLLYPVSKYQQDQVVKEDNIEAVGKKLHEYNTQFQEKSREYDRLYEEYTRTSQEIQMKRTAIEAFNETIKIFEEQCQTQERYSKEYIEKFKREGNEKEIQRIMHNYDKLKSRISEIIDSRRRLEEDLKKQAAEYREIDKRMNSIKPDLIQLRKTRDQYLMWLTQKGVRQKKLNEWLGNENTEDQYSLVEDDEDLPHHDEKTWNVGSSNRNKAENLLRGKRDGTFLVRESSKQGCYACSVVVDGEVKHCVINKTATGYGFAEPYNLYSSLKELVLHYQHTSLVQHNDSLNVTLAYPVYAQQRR
Compound,PI3KA_FL Ki [nM],PI3KA_FL Ki (nM)
Nc1ncc(-c2nc(N3CCOCC3)nc3c2CCN3C2CCC(F)(F)C2)cn1 (racemic) [Example 19],0.528,
Nc1ncc(-c2nc(N3CCOCC3)nc3c2CCN3C2CCCOC2)cn1 (racemic) [Example 37],7.189,
CC(=O)N1CCCC(N2CCc3c(-c4cnc(N)nc4)nc(N4CCOCC4)nc32)C1 (racemic) [Example 51],18.619,
"CC(=O)N1C[C@@H](F)[C@H](N2CCc3c(-c4cnc(N)nc4)nc(N4CCOCC4)nc32)C1 (single isomer, unassigned) [Example 66]",0.926,
"CC(=O)N1C[C@H](F)[C@@H](N2CCc3c(-c4cnc(N)nc4)nc(N4CCOCC4)nc32)C1 (single isomer, unassigned) [Example 67]",1.899,
"CC(=O)N1C[C@@H](N2CCc3c(-c4cnc(N)nc4)nc(N4CCOCC4)nc32)[C@@H](F)C1 (single isomer, unassigned) [Example 75]",1.106,
"C[C@H]1COCCN1c1nc(-c2cnc(N)nc2)c2c(n1)N([C@@H]1CCC(F)(F)C1)CC2 (single isomer, unassigned) [Example 88]",0.674,
"C[C@H]1COCCN1c1nc(-c2cnc(N)nc2)c2c(n1)N([C@H]1CCC(F)(F)C1)CC2 (single isomer, unassigned) [Example 89]",1.247,
CC(=O)N1CC[C@@H](N2CCc3c(-c4cnc(N)nc4)nc(N4CCOCC4)nc32)C1 [Example 11],4.095,
CC(=O)N1CC[C@H](N2CCc3c(-c4cnc(N)nc4)nc(N4CCOCC4)nc32)C1 [Example 12],1.130,
Nc1ncc(-c2nc(N3CCOCC3)nc3c2CCN3C2CCC2)cn1 [Example 14],6.843,
CS(=O)(=O)[C@H]1C[C@H](N2CCc3c(-c4cnc(N)nc4)nc(N4CCOCC4)nc32)C1 [Example 15],0.856,
Nc1ncc(-c2nc(N3CCOCC3)nc3c2CCN3[C@H]2CCOC2)cn1 [Example 16],1.423,
Nc1ncc(-c2nc(N3CCOCC3)nc3c2CCN3[C@@H]2CCOC2)cn1 [Example 17],4.273,
Nc1ncc(-c2nc(N3CCOCC3)nc3c2CCN3C2CCOCC2)cn1 [Example 18],2.706,
CC(=O)N(C)[C@H]1C[C@H](N2CCc3c(-c4cnc(N)nc4)nc(N4CCOCC4)nc32)C1 [Example 21],5.393,
CN([C@H]1C[C@H](N2CCc3c(-c4cnc(N)nc4)nc(N4CCOCC4)nc32)C1)S(C)(=O)=O [Example 22],,≦0.229 nM
CC(=O)N[C@H]1C[C@@H](N2CCc3c(-c4cnc(N)nc4)nc(N4CCOCC4)nc32)C1 [Example 23],9.696,
Nc1ncc(-c2nc(N3CCOCC3)nc3c2CCN3[C@H]2C[C@H](O)C2)cn1 [Example 24],0.961,
Nc1ncc(-c2nc(N3CCOCC3)nc3c2CCN3[C@H]2CCN(C(=O)CO)C2)cn1 [Example 25],,≦0.229 nM
Nc1ncc(-c2nc(N3CCOCC3)nc3c2CCN3[C@H]2CCN(S(N)(=O)=O)C2)cn1 [Example 26],0.423,
CNC(=O)N1CC[C@H](N2CCc3c(-c4cnc(N)nc4)nc(N4CCOCC4)nc32)C1 [Example 27],1.025,
COC(=O)N1CC[C@H](N2CCc3c(-c4cnc(N)nc4)nc(N4CCOCC4)nc32)C1 [Example 28],0.521,
CC(=O)N[C@H]1C[C@H](N2CCc3c(-c4cnc(N)nc4)nc(N4CCOCC4)nc32)C1 [Example 29],5.828,
C[C@H](O)C(=O)N1CC[C@H](N2CCc3c(-c4cnc(N)nc4)nc(N4CCOCC4)nc32)C1 [Example 30],1.188,
CC(C)[C@@H](O)C(=O)N1CC[C@H](N2CCc3c(-c4cnc(N)nc4)nc(N4CCOCC4)nc32)C1 [Example 31],,≦0.229 nM
CC(C)[C@H](O)C(=O)N1CC[C@H](N2CCc3c(-c4cnc(N)nc4)nc(N4CCOCC4)nc32)C1 [Example 32],0.841,
